# Reference: US20190388437A1, “COMPOSITIONS AND METHODS FOR TREATING BONE AND JOINT INFECTIONS” (priority 2014, published 2019)
# Legend:
# [1] = Multi-dose bioavailability study, 500 mg TID; type: in vivo, healthy subjects (human)
# Procedure: Multi-dose bioavailability study using FA at 500 mg TID. The pharmacokinetics of multiple oral doses of CEM-102 (sodium fusidate) 500 mg tablets in healthy subjects was evaluated. […] Blood samples for assay of plasma concentrations of CEM-102 and placebo were collected pre-dose on Day 1 and at 24, 48, 72, and 96 hours. […] Plasma concentrations of CEM-102 were assayed at MicroConstants. Inc. in San Diego, Calif., USA using a validated LC/MS/MS method with a lower limit of quantitation (LLOQ) of 20.0 ng/mL.
# WT isolates = assay: MIC with 10% human serum added; type: cell-based
# Procedure: (§1) CLSI broth microdilution (BMD) and anaerobic agar dilution (AD) methods were performed. Modifications of standard test methods included adding 10% human serum, adjusting the medium pH to 5, 6, and 8, and synergy was assessed by the checkerboard method. Mutational rates to R were determined at 4×.
# S. aureus [2] = assay: MIC population distribution, 217 S. aureus Canadian isolates; type: cell-based; conditions: 217 Canadian isolates
# [3] = Single oral dose bioavailability study, fed/fasted crossover; type: in vivo, healthy subjects (human)
# Procedure: Single oral dose bioavailability study of CEM-102 (sodium fusidate). […] This was a single-center, Phase 1, double-blind, randomized, 3 period, fed/fasted crossover bioequivalence study designed to evaluate the relative bioavailability and safety and tolerability of a single oral dose of CEM-102 500 mg compared to Fucidin® 500 mg in healthy subjects. Subjects were randomized in equal numbers to the 4 treatment sequences (Table 3).
# Study Period 1, 2, and 3 (Days 1, 15, and 29): One dose of study drug 500 mg (2×250 mg) of CEM-102 or Fucidin® was given at 8:00 AM (˜30 minutes). On Day 1 of Study Periods 1 and 2 (Days 1 and 15), subjects fasted overnight for at least 10 hours prior to dosing. On Day 1 of Study Period 3 (Day 29), subjects were given a high fat caloric meal which was to be entirely consumed within 30 minutes prior to study drug administration.
# Blood samples for assay of plasma concentrations were collected on Days 1, 15 and 29 at pre-dose and 0.5, 1, 1.5, 2, 2.5, 3, 3.5, 4, 6, 8, 12, 16, 24, 36, and 48 hours after the dose. Plasma concentrations were assayed at MicroConstants, Inc. in San Diego, Calif. using a validated liquid chromatography with dual tandem mass spectrometry (LC/MS/MS) method with a lower limit of quantitation (LLOQ) of 20.0 ng/mL
# Staphylococcus = conditions: cited from earlier work
# Enterococci = assay: CLSI broth microdilution MIC, spectrum study; type: cell-based
# Procedure: as §1
# streptococci = assay: CLSI broth microdilution MIC, spectrum study; type: cell-based
# Procedure: as §1
# S. aureus [4] = assay: CLSI broth microdilution MIC, spectrum study; type: cell-based; conditions: Staphylococcus aureus
# Procedure: as §1
# M. luteus = assay: CLSI broth microdilution MIC, spectrum study; type: cell-based; conditions: Micrococcus luteus
# Procedure: as §1
# [5] = tested on: E. brevis, M. catarrhalis and N. meningitidis; assay: CLSI broth microdilution MIC, spectrum study; type: cell-based
# Procedure: as §1
# Corynebacterium spp. = assay: CLSI broth microdilution MIC, spectrum study; type: cell-based
# Procedure: as §1
smiles,measurement,setting,value
"CC(=O)O[C@H]1C[C@@]2(C)[C@@H](C[C@@H](O)[C@H]3[C@@]4(C)CC[C@@H](O)[C@@H](C)[C@@H]4CC[C@@]32C)/C1=C(\CCC=C(C)C)C(=O)O [FA, fusidic acid]","Cmaxss, geometric mean (CV %)","[1]; human, in vivo, 500 mg",145680 (25.3) ng/mL
same,"t½ss, arithmetic mean ± SD","[1]; human, in vivo, 500 mg",approximately 19 h
same,Trough level,"[1]; prior to dosing on Day 5, 500 mg TID",105 µg/mL
same,increase in MIC when 10% serum was added,WT isolates,4 fold
same,resistance rate (for CEM-102: isolates with MICs of ≥2.0 μg/mL),S. aureus [2],6.5%
same,total exposure (AUC),"[3]; 500 mg, fasting",~318 µg·h/mL
same,total exposure (AUC),"[3]; 500 mg, fed",approximately 285 μg·h/mL
same,"tmax, median","[3]; human, in vivo, po",~3.00 h
same,"t1/2, arithmetic mean ± SD","[3]; human, in vivo, po, 500 mg",~11.8 h
same,"tmax, median","[3]; single oral 500 mg (2×250 mg), fasting",3.00 h
same,"tmax, median","[3]; single oral 500 mg (2×250 mg), fed",3.50 h
same,MIC in plasma protein,Staphylococcus,≥ 2.5 micrograms per ml
same,increase of MIC in plasma protein,Staphylococcus,8-10 fold
same,MIC range,Enterococci,2 to 8 µg/mL
same,MIC range,streptococci,16 to 32 µg/mL
same,MIC,S. aureus [4],0.25 µg/mL
same,MIC,M. luteus,≤ 0.5 µg/mL
same,MIC,[5],0.12 to 0.5 µg/mL
same,MIC,Corynebacterium spp.,≤ 0.12 µg/mL
